Measured values published in the supplement of paper PMC8024199.
± gives the standard deviation of the averaged measurements.

Tests used:
Assay in all cases: drug sensitivity score (DSS) (DSS score); higher = more sensitive (stronger growth inhibition); extreme values may be limits of the assay
[1] = test system: Ly-BP RUNX1 wild-1
Summary of the method: (§1)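 Thawed bone marrow mononuclear cells from blast-phase CML patients were tested ex vivo against an oncology library of 125 approved and 127 investigational compounds. The compounds were pre-printed on 384-well plates at five concentrations across a 10,000-fold range, with 10,000 cells per well in Mononuclear Cell Medium containing gentamicin and amphotericin B. Plates were incubated 72 h at 37 °C and 5% CO2. CellTiter-Glo viability was normalised to vehicle and positive-control wells, and the dose-response curve was summarised as a drug sensitivity score.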

[2] = test system: My-BP RUNX1 wild-3
Summary of the method: as §1

[3] = test system: Mye-BP RUNX1 p.R162K
Summary of the method: as §1

[4] = test system: My-BP RUNX1 wild-4
Summary of the method: as §1

[5] = test system: Mye-BP RUNX1 p.R107C
Summary of the method: as §1

[6] = test system: Mye-BP RUNX1 p.K117*
Summary of the method: as §1

[7] = test system: My-BP RUNX1 wild-2
Summary of the method: as §1

[8] = test system: Ly-BP RUNX1 p.R204Q
Summary of the method: as §1

[9] = test system: Ba/F3 P210-BCR-ABL1 RUNX1wt/wt control (mouse)
Summary of the method: (§2)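 Mouse Ba/F3 cells, either CRISPR/Cas9-edited at a target exon or edited-control clones, were screened against a 528-compound library on pre-printed 384-well plates. Each compound was tested at five concentrations across a 10,000-fold range, with 10,000 cells per well in RPMI with 10% FBS for 72 h at 37 °C and 5% CO2. CellTiter-Glo luminescence was scaled between vehicle and positive-control wells, and each dose-response was summarised as a drug sensitivity score. Scores were averaged over two replicates.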

[10] = test system: Ba/F3 P210-BCR-ABL1 RUNX1-/mut (mouse)
Summary of the method: as §2

[11] = test system: Ba/F3 P210-BCR-ABL1 RUNX1-/- (mouse)
Summary of the method: as §2

| Structure (SMILES) | drug sensitivity score [1] | drug sensitivity score [2] | drug sensitivity score [3] | drug sensitivity score [4] | drug sensitivity score [5] | drug sensitivity score [6] | drug sensitivity score [7] | drug sensitivity score [8] | drug sensitivity score [9] | drug sensitivity score [10] | drug sensitivity score [11] |
| --- | --- | --- | --- | --- | --- | --- | --- | --- | --- | --- | --- |
| C[C@]1(O)C[C@@H](c2nc(-c3ccc4ccc(-c5ccccc5)nc4c3)c3c(N)nccn32)C1 [Linsitinib] | 3.2 | 1.73 | 8.17 | 0 | 6.5 | 3 | 0 | 4.78 | 0 | 1.75 ± 2.3 | 1.2 ± 1.7 |
| NC1(c2ccc(-c3nc4ccn5c(=O)[nH]nc5c4cc3-c3ccccc3)cc2)CCC1 [MK-2206] | 12.4 | 4.01 | 4.19 | 2.51 | 10.3 | 10.5 | 0.393 | 11.9 | 0 | 2.45 ± 2 | 2.9 ± 0.85 |
| Cc1ccc(NC(=O)c2ccc(CN3CCN(C)CC3)cc2)cc1Nc1nc(-c2cccnc2)cs1 [Masitinib] | 7.4 | 6.25 | 13.8 | 8.68 | 8.4 | 6.6 | 5.81 | 0 | 5.65 ± 0.78 | 7.1 ± 0.71 | 10.2 ± 0.64 |
| S=c1[nH]cnc2nc[nH]c12 [Mercaptopurine] | 2.9 | 0 | 0 | 0 | 0 | 0 | 0 | 0 | 6.25 ± 0.78 | 3.65 ± 0.35 | 9.2 ± 0.99 |
| CN(Cc1cnc2nc(N)nc(N)c2n1)c1ccc(C(=O)N[C@@H](CCC(=O)O)C(=O)O)cc1 [Methotrexate] | 0 | 0 | 1.89 | 0 | 0 | 1.7 | 7.52 | 0 | 22.4 ± 1.1 | 25.6 ± 1.9 | 20.1 ± 7.6 |
| C[C@H]1C[C@@H]2[C@H]([C@@H](O)C[C@@]3(C)[C@H]2CC[C@]3(O)C(=O)CO)[C@@]2(C)C=CC(=O)C=C12 [Methylprednisolone] | 25.7 | 0.748 | 6.6 | 1.34 | 4.3 | 14.6 | 2.28 | 25.5 | 0.25 ± 0.35 | 2.4 ± 3.4 | 0.15 ± 0.21 |
| CO[C@@H]1[C@H](N(C)C(=O)c2ccccc2)C[C@H]2O[C@]1(C)n1c3ccccc3c3c4c(c5c6ccccc6n2c5c31)C(=O)NC4 [Midostaurin] | 8.5 | 0.0352 | 6.91 | 3.3 | 2.5 | 13.4 | 7.69 | 0 | 6.15 ± 0.21 | 11.8 ± 3.4 | 13.6 ± 3 |
| CO[C@@]12[C@H](COC(N)=O)C3=C(C(=O)C(C)=C(N)C3=O)N1C[C@@H]1N[C@@H]12 [Mitomycin C] | 1.2 | 2.21 | 3.95 | 0 | 10.8 | 1.1 | 1.46 | 11.2 | 4.35 ± 0.78 | 4.9 ± 1.8 | 6.55 ± 3.9 |
| Clc1ccc(C(c2ccccc2Cl)C(Cl)Cl)cc1 (stereo unspecified) [Mitotane] | 0 | 0 | 0 | 0 | 0 | 0 | 0 | 0 | 0.35 ± 0.49 | 0.75 ± 1.1 | 0.45 ± 0.64 |
| O=C1c2c(O)ccc(O)c2C(=O)c2c(NCCNCCO)ccc(NCCNCCO)c21 [Mitoxantrone] | 6.8 | 1.29 | 7.19 | 16.5 | 9.8 | 7 | 15.6 | 0 | 22.4 ± 0.35 | 29.1 ± 4.9 | 30.5 ± 4.7 |
| CC1(C)CNc2cc(NC(=O)c3cccnc3NCc3ccncc3)ccc21 [Motesanib] | 3 | 0.188 | 0 | 0 | 2.5 | 0 | 0 | 0 | 1.25 ± 1.8 | 1.6 ± 1.6 | 1.5 ± 2.1 |
| CC1(C)CCC(c2ccc(Cl)cc2)=C(CN2CCN(c3ccc(C(=O)NS(=O)(=O)c4ccc(N[C@H](CCN5CCOCC5)CSc5ccccc5)c(S(=O)(=O)C(F)(F)F)c4)cc3)CC2)C1 [Navitoclax] | 24.9 | 15.5 | 28.1 | 18.4 | 31.2 | 11.4 | 20 | 20.3 | 7.05 ± 0.78 | 4.45 ± 4 | 1.55 ± 1.3 |
| COc1nc(N)nc2c1ncn2[C@@H]1O[C@H](CO)[C@@H](O)[C@@H]1O [Nelarabine] | 3.5 | 4.86 | 2.13 | 3.32 | 8.3 | 0 | 0.879 | 3.14 | 0 | 2.55 ± 3.6 | 3.3 ± 4.7 |
| Cc1cn(-c2cc(NC(=O)c3ccc(C)c(Nc4nccc(-c5cccnc5)n4)c3)cc(C(F)(F)F)c2)cn1 [Nilotinib] | 6.8 | 0 | 34.5 | 3.46 | 8.6 | 8.1 | 3.2 | 0 | 28.6 | 25.6 ± 5.7 | 35.5 ± 1.1 |
| CC1(C)NC(=O)N(c2ccc([N+](=O)[O-])c(C(F)(F)F)c2)C1=O [Nilutamide] | 0 | 0 | 0 | 0 | 0 | 0 | 0 | 0 | 0.2 ± 0.28 | 0 | 0 |
| O=C(c1cc(Cc2n[nH]c(=O)c3ccccc23)ccc1F)N1CCN(C(=O)C2CC2)CC1 [Olaparib] | 2.9 | 0.287 | 4.88 | 0 | 3.7 | 5.4 | 2.93 | 0 | 0 | 9.9 ± 0.28 | 5.7 ± 0.42 |
